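Grown in 96-well plates, cells were treated for 48 hours with each compound at five concentrations. Insufficient inhibition: endpoint recorded as highest concentration tested. At the TGI there is no net growth.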

The TGI is the concentration at which net growth stops. A low value points to more potent growth arrest.

The test system of one experiment is ACHN renal. Description: DTP human tumour cell line panel, 48 h.
In turn, `COc1cc2c3c(c4cc(OC)c(OC)cc4c2cc1OC)C(=O)C1CCC(=O)N1C3` (stereo not given) came in with a TGI of 59.7 µM.
Take `O=C(NC(CO)Cc1ccc(Oc2cc(CC(CO)NC(=O)OCc3ccccc3)ccc2OC(=O)OCc2ccccc2)cc1)OCc1ccccc1` (stereo not given): the total growth inhibition concentration (TGI) worked out at 62.7 µM. This TGI and that of the molecule before are within 1.5-fold of each other.
Molecule `CC(C)(C)c1cc(C(=O)/C=C/C=C/c2ccccc2)cc(C(C)(C)C)c1O` gave a concentration for total growth inhibition (TGI) greater than 100 µM.
On the same count and under the same terms, as for `O=C(O)CCN(CCC(=O)O)c1ccc(/C=C2\SC(=S)NC2=O)cc1`, the figure is greater than 100 µM.
On the same count and under the same terms, the result for `CC(=O)Nc1ccc2cc(C)c(=O)[nH]c2n1` reads greater than 100 µM; that for `CCc1nc2ccc(N=NN(C)C)cc2[nH]1`, greater than 100 µM; that for `Nc1nc2c(ncn2Cc2ccc(CO)cc2)c(=O)[nH]1`, greater than 100 µM.
`CN(CCN(C)C(=S)NN)C(=S)NN` had a TGI greater than 100 µM.
On the same count and under the same terms, the result for `O=C(NS(=O)(=O)OCC(Cl)(Cl)Cl)SCCC(F)(F)C(F)(F)C(F)(F)C(F)(F)C(F)(F)C(F)(F)F` reads greater than 100 µM.
The same measure, in the same setting: the result for `CC(C)=C1C(=O)C[C@]2(C)C[C@H]3/C(=C(/C)CCC12)CC[C@@]3(C)O` (stereo not given in full) reads greater than 50 µM.
Still for that read-out and setting: as for `CC(=O)Nc1ccc(-c2nc3ccccc3s2)cc1`, the figure is 92.3 µM; as for `O=C(NCCCN(CCCCN(CCCNC(=O)C(F)(F)F)CCCc1ccccc1)CCCc1ccccc1)C(F)(F)F`, 3.42 µM; as for `CCOP(=O)(O)C(C)(C)NC`, greater than 100 µM.
Molecule `Cc1cccc(C(C)C)c1NC(=O)CC1Sc2ccccc2NC1=O` (stereo not given) showed a TGI greater than 100 µM.
Still for that read-out and setting: as for `CC(C)C[C@H]1[C@@H](OCc2ccccc2)COS(=O)N1[C@H](C)c1ccccc1` (stereo not given in full), the figure is greater than 100 µM; as for `CC1(C)OC2C(O)CN3CCS[C@H]3C2O1` (stereo not given in full), greater than 100 µM.
Still for that read-out and setting: the result for `COC(=O)C1C=CN(N(C)C)C2=C1C(=O)c1c(O)cccc1C2=O` (stereo not given) reads 12.4 µM.

A further experiment has as its system HCT-116 colon. Description: DTP human tumour cell line panel, 48 h.
The molecule `O=C(NC(CO)Cc1ccc(Oc2cc(CC(CO)NC(=O)OCc3ccccc3)ccc2OC(=O)OCc2ccccc2)cc1)OCc1ccccc1` (stereo not given) had a TGI of 40.7 µM.
In the case of `CC(C)(C)c1cc(C(=O)/C=C/C=C/c2ccccc2)cc(C(C)(C)C)c1O`, the TGI turned out to be 44.9 µM.
Still for that read-out and setting: as for `O=C(O)CCN(CCC(=O)O)c1ccc(/C=C2\SC(=S)NC2=O)cc1`, the figure is greater than 100 µM.
Still for that read-out and setting: as for `CC(=O)Nc1ccc2cc(C)c(=O)[nH]c2n1`, the figure is greater than 100 µM; as for `CCc1nc2ccc(N=NN(C)C)cc2[nH]1`, greater than 100 µM; as for `Nc1nc2c(ncn2Cc2ccc(CO)cc2)c(=O)[nH]1`, greater than 100 µM.
Same read-out and setting: as for `CN(CCN(C)C(=S)NN)C(=S)NN`, the figure is greater than 100 µM; as for `O=C(NS(=O)(=O)OCC(Cl)(Cl)Cl)SCCC(F)(F)C(F)(F)C(F)(F)C(F)(F)C(F)(F)C(F)(F)F`, 40.8 µM.
`CC(C)=C1C(=O)C[C@]2(C)C[C@H]3/C(=C(/C)CCC12)CC[C@@]3(C)O` (stereo not given in full) returned a concentration for total growth inhibition (TGI) greater than 50 µM.
Same read-out and setting: as for `CC(=O)Nc1ccc(-c2nc3ccccc3s2)cc1`, the figure is greater than 100 µM; as for `O=C(NCCCN(CCCCN(CCCNC(=O)C(F)(F)F)CCCc1ccccc1)CCCc1ccccc1)C(F)(F)F`, 5.9 µM; as for `CCOP(=O)(O)C(C)(C)NC`, greater than 100 µM.
On the same count and under the same terms, the result for `Cc1cccc(C(C)C)c1NC(=O)CC1Sc2ccccc2NC1=O` (stereo not given) reads greater than 100 µM; that for `CC(C)C[C@H]1[C@@H](OCc2ccccc2)COS(=O)N1[C@H](C)c1ccccc1` (stereo not given in full), 19 µM; that for `CC1(C)OC2C(O)CN3CCS[C@H]3C2O1` (stereo not given in full), greater than 100 µM.
Same read-out and setting: as for `COC(=O)C1C=CN(N(C)C)C2=C1C(=O)c1c(O)cccc1C2=O` (stereo not given), the figure is 5.79 µM.

A further experiment deals with HCT-15 colon. Description: DTP human tumour cell line panel, 48 h.
Molecule `COc1cc2c3c(c4cc(OC)c(OC)cc4c2cc1OC)C(=O)C1CCC(=O)N1C3` (stereo not given) displayed a total growth inhibition concentration (TGI) greater than 100 µM.
`O=C(NC(CO)Cc1ccc(Oc2cc(CC(CO)NC(=O)OCc3ccccc3)ccc2OC(=O)OCc2ccccc2)cc1)OCc1ccccc1` (stereo not given) came in with a total growth inhibition concentration (TGI) greater than 100 µM.
On the same count and under the same terms, the result for `CC(C)(C)c1cc(C(=O)/C=C/C=C/c2ccccc2)cc(C(C)(C)C)c1O` reads greater than 67.1 µM.
On the same count and under the same terms, as for `O=C(O)CCN(CCC(=O)O)c1ccc(/C=C2\SC(=S)NC2=O)cc1`, the figure is greater than 100 µM; as for `CC(=O)Nc1ccc2cc(C)c(=O)[nH]c2n1`, greater than 100 µM; as for `CCc1nc2ccc(N=NN(C)C)cc2[nH]1`, greater than 100 µM.
The same measure, in the same setting: as for `Nc1nc2c(ncn2Cc2ccc(CO)cc2)c(=O)[nH]1`, the figure is greater than 100 µM; as for `O=C(NS(=O)(=O)OCC(Cl)(Cl)Cl)SCCC(F)(F)C(F)(F)C(F)(F)C(F)(F)C(F)(F)C(F)(F)F`, 47.4 µM.
Turning to `CC(C)=C1C(=O)C[C@]2(C)C[C@H]3/C(=C(/C)CCC12)CC[C@@]3(C)O` (stereo not given in full), the concentration for total growth inhibition (TGI) was greater than 50 µM.
The same measure, in the same setting: as for `CC(=O)Nc1ccc(-c2nc3ccccc3s2)cc1`, the figure is greater than 100 µM; as for `O=C(NCCCN(CCCCN(CCCNC(=O)C(F)(F)F)CCCc1ccccc1)CCCc1ccccc1)C(F)(F)F`, 2.98 µM; as for `CCOP(=O)(O)C(C)(C)NC`, greater than 100 µM.
Still for that read-out and setting: the result for `Cc1cccc(C(C)C)c1NC(=O)CC1Sc2ccccc2NC1=O` (stereo not given) reads greater than 100 µM; that for `CC(C)C[C@H]1[C@@H](OCc2ccccc2)COS(=O)N1[C@H](C)c1ccccc1` (stereo not given in full), greater than 100 µM; that for `CC1(C)OC2C(O)CN3CCS[C@H]3C2O1` (stereo not given in full), greater than 100 µM.
Take `COC(=O)C1C=CN(N(C)C)C2=C1C(=O)c1c(O)cccc1C2=O` (stereo not given): the total growth inhibition concentration (TGI) was determined as 5.16 µM.

For another experiment, the system named is HOP-62 NSCLC. In words: DTP human tumour cell line panel, 48 h.
As for `COc1cc2c3c(c4cc(OC)c(OC)cc4c2cc1OC)C(=O)C1CCC(=O)N1C3` (stereo not given), the total growth inhibition concentration (TGI) worked out at 59.3 µM.
The same measure, in the same setting: the result for `O=C(NC(CO)Cc1ccc(Oc2cc(CC(CO)NC(=O)OCc3ccccc3)ccc2OC(=O)OCc2ccccc2)cc1)OCc1ccccc1` (stereo not given) reads 52.6 µM; that for `CC(C)(C)c1cc(C(=O)/C=C/C=C/c2ccccc2)cc(C(C)(C)C)c1O`, greater than 100 µM.
On to `O=C(O)CCN(CCC(=O)O)c1ccc(/C=C2\SC(=S)NC2=O)cc1`, for which the concentration for total growth inhibition (TGI) is greater than 100 µM.
Consider `CCc1nc2ccc(N=NN(C)C)cc2[nH]1`, for which the concentration for total growth inhibition (TGI) is greater than 100 µM.
For the molecule `Nc1nc2c(ncn2Cc2ccc(CO)cc2)c(=O)[nH]1`, the total growth inhibition concentration (TGI) was greater than 100 µM.
On the same count and under the same terms, the result for `CN(CCN(C)C(=S)NN)C(=S)NN` reads greater than 100 µM.
Same read-out and setting: as for `O=C(NS(=O)(=O)OCC(Cl)(Cl)Cl)SCCC(F)(F)C(F)(F)C(F)(F)C(F)(F)C(F)(F)C(F)(F)F`, the figure is 72.4 µM; as for `CC(C)=C1C(=O)C[C@]2(C)C[C@H]3/C(=C(/C)CCC12)CC[C@@]3(C)O` (stereo not given in full), greater than 50 µM.
The same measure, in the same setting: the result for `CC(=O)Nc1ccc(-c2nc3ccccc3s2)cc1` reads 45.8 µM; that for `CCOP(=O)(O)C(C)(C)NC`, greater than 100 µM; that for `Cc1cccc(C(C)C)c1NC(=O)CC1Sc2ccccc2NC1=O` (stereo not given), greater than 100 µM.
`CC(C)C[C@H]1[C@@H](OCc2ccccc2)COS(=O)N1[C@H](C)c1ccccc1` (stereo not given in full) came in with a TGI of 67.4 µM.
Same read-out and setting: as for `CC1(C)OC2C(O)CN3CCS[C@H]3C2O1` (stereo not given in full), the figure is greater than 100 µM.
Still for that read-out and setting: the result for `COC(=O)C1C=CN(N(C)C)C2=C1C(=O)c1c(O)cccc1C2=O` (stereo not given) reads 8.42 µM.

In the next experiment the test system is HOP-92 NSCLC. Description: DTP human tumour cell line panel, 48 h.
Turning to `COc1cc2c3c(c4cc(OC)c(OC)cc4c2cc1OC)C(=O)C1CCC(=O)N1C3` (stereo not given), the TGI was 82.2 µM.
Same read-out and setting: as for `O=C(NC(CO)Cc1ccc(Oc2cc(CC(CO)NC(=O)OCc3ccccc3)ccc2OC(=O)OCc2ccccc2)cc1)OCc1ccccc1` (stereo not given), the figure is 54.3 µM; as for `CC(C)(C)c1cc(C(=O)/C=C/C=C/c2ccccc2)cc(C(C)(C)C)c1O`, greater than 100 µM.
The same measure, in the same setting: the result for `O=C(O)CCN(CCC(=O)O)c1ccc(/C=C2\SC(=S)NC2=O)cc1` reads greater than 100 µM.
As to `CC(=O)Nc1ccc2cc(C)c(=O)[nH]c2n1`, the TGI was greater than 100 µM.
On to `Nc1nc2c(ncn2Cc2ccc(CO)cc2)c(=O)[nH]1`, for which the TGI was greater than 100 µM.

The values are drawn from PubChem BioAssay (NCI).
